Test results taken from article PMC3984001 (Neuropharmacology, 2014).
Where two headings read alike, the source gives them in different places.

Key:
Format in all cases: cell-based
human α2β2-nAChR [1] = biological target: T1, human α2β2-nAChR (Homo sapiens, UniProt P17787+Q15822); conditions: for Peak current: hα2hβ2opt, 316 μM ACh or 100 μM nicotine; for Higher agonist sensitivity of 1:10 (HS) than 1:1 receptors: α2:β2 1:10 vs 1:1 cRNA; for Higher agonist sensitivity of 1:10 (HS) than 1:1 receptors / Higher agonist sensitivity of 1:10 (HS) than 10:1 (LS) receptors: range printed for ACh or nicotine together; for Lower Imax of 1:10 (HS) than 1:1 or 10:1 receptors: α2:β2 1:10 vs 1:1 or 10:1 cRNA; for Higher agonist sensitivity of 1:10 (HS) than 10:1 (LS) receptors: α2:β2 1:10 vs 10:1 cRNA; for Lower Imax of 10:1 than 1:1 receptors / Lower agonist sensitivity of 10:1 than 1:1 receptors: α2:β2 10:1 vs 1:1 cRNA; for Peak response Imax (Mean±SE): at the Imax concentration of the agonist; for EC50: Potency EC50 (95% CI), −70 mV
hα2hβ2wt-nAChR = hα2hβ2wt-nAChR (Homo sapiens, UniProt P17787+Q15822); conditions: 316 μM ACh or 100 μM nicotine
human α2(T22I)β2-nAChR [2] = biological target: T2, human α2(T22I)β2-nAChR (Homo sapiens, UniProt P17787+Q15822, T22I); conditions: for Higher agonist sensitivity of 1:10 (HS) than 1:1 or 10:1 receptors: α2(T22I):β2 1:10 vs 1:1 or 10:1 cRNA; for Lower Imax of 10:1 than 1:1 receptors / Lower agonist sensitivity of 10:1 than 1:1 receptors: α2(T22I):β2 10:1 vs 1:1 cRNA; for Peak response Imax (Mean±SE): at the Imax concentration of the agonist
human α2(T22I)β2-nAChR [3] = biological target: T2, human α2(T22I)β2-nAChR; assay: Mecamylamine block of agonist-induced Imax responses; conditions: 1000 μM mecamylamine; α2(T22I):β2 1:1, 10:1 or 1:10; data not shown
human α2β2-nAChR [4] = biological target: T1, human α2β2-nAChR; assay: as above; conditions: 1000 μM mecamylamine; α2:β2 1:1, 10:1 or 1:10; data not shown
human α2(T22I)β4-nAChR [5] = biological target: T3, human α2(T22I)β4-nAChR (Homo sapiens, UniProt P30926+Q15822, T22I); assay: Mecamylamine block of agonist-induced peak currents; conditions: ACH-2, read-out: Inhibition of ACh-induced peak current responses, 1000 μM mecamylamine; 316 μM ACh; α2(T22I):β4 1:1
human α2β4-nAChR = human α2β4-nAChR (Homo sapiens, UniProt P30926+Q15822); conditions: for EC50: Potency EC50 (95% CI), −70 mV; for Peak response Imax (Mean±SE): at the Imax concentration of the agonist
human α2(T22I)β4-nAChR [6] = biological target: T3, human α2(T22I)β4-nAChR; conditions: for EC50: Potency EC50 (95% CI), −70 mV; for Peak response Imax (Mean±SE): at the Imax concentration of the agonist

T1 sequence (Q15822 27-529): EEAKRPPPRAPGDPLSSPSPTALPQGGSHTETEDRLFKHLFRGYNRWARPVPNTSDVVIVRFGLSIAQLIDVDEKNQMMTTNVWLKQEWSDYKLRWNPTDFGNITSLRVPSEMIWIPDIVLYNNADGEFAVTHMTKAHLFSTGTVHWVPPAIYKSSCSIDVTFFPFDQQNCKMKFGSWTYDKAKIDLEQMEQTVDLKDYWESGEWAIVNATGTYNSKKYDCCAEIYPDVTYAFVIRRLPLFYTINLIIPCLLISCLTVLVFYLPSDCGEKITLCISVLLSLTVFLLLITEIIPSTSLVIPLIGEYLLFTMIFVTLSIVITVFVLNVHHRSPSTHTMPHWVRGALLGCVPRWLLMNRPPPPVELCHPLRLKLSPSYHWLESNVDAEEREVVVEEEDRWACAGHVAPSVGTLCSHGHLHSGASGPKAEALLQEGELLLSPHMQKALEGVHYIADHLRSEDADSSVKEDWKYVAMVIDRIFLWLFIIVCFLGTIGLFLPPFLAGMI
T1 sequence (P17787 26-502): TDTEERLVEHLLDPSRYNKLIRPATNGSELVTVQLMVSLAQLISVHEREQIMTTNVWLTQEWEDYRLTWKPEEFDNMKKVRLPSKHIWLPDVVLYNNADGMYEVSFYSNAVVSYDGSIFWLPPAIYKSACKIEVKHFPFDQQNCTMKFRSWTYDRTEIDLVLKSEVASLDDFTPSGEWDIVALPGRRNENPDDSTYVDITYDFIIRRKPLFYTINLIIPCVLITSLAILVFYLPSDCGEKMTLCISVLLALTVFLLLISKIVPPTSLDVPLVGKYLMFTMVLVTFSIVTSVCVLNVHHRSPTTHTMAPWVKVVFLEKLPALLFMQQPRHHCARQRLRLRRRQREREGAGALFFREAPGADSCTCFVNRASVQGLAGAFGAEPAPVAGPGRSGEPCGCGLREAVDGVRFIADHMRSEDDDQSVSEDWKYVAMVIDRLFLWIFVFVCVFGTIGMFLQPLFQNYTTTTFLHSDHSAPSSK
T2 sequence (Q15822 27-529): as the sequence (Q15822 27-529) above
T2 sequence (P17787 26-502): as the sequence (P17787 26-502) above
Chain of human α2β4-nAChR (Q15822 27-529): as the sequence (Q15822 27-529) above
Chain of human α2β4-nAChR (P30926 22-498): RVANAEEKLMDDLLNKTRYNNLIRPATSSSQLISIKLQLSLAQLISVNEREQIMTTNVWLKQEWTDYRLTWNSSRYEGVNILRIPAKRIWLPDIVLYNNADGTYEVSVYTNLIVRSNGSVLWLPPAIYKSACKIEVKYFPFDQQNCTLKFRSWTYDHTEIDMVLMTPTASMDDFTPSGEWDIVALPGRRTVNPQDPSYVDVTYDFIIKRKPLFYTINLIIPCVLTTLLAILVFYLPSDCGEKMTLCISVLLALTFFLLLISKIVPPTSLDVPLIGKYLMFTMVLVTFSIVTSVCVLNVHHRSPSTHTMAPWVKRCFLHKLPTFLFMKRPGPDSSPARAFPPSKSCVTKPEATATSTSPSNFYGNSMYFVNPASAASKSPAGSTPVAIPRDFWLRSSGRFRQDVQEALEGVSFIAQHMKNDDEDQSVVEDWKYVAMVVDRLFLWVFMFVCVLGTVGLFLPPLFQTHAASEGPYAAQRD
T3 sequence (Q15822 27-529): as the sequence (Q15822 27-529) above
T3 sequence (P30926 22-498): as the sequence (P30926 22-498) above
Chain of hα2hβ2wt-nAChR (Q15822 27-529): as the sequence (Q15822 27-529) above
Chain of hα2hβ2wt-nAChR (P17787 26-502): as the sequence (P17787 26-502) above

SMILES: CC(=O)OCC[N+](C)(C)C [ACh, acetylcholine]
- Peak current (human α2β2-nAChR [1]): 406±89 nA
- Higher agonist sensitivity of 1:10 (HS) than 1:1 receptors (human α2β2-nAChR [1]): 2–3 fold
- Lower Imax of 1:10 (HS) than 1:1 or 10:1 receptors (human α2β2-nAChR [1]): 47–70%
- Higher agonist sensitivity of 1:10 (HS) than 10:1 (LS) receptors (human α2β2-nAChR [1]): 8–18 fold
- Lower Imax of 10:1 than 1:1 receptors (human α2β2-nAChR [1]): ~ 43%
- Lower agonist sensitivity of 10:1 than 1:1 receptors (human α2β2-nAChR [1]): ~ 5 fold
- Hill coefficient nH ± SE (human α2β2-nAChR [1]; α2β2(1:1)): 0.7 ± 0.05
- Peak response Imax (Mean±SE) (human α2β2-nAChR [1]; α2β2(1:1)): 551 ± 62 nA
- Hill coefficient nH ± SE (human α2β2-nAChR [1]; α2β2(1:10)): 1 ± 0.08
- Peak response Imax (Mean±SE) (human α2β2-nAChR [1]; α2β2(1:10)): 167 ± 18 nA
- Hill coefficient nH ± SE (human α2β2-nAChR [1]; α2β2(10:1)): 0.9 ± 0.08
- Peak response Imax (Mean±SE) (human α2β2-nAChR [1]; α2β2(10:1)): 314 ± 84 nA
- Peak current (hα2hβ2wt-nAChR): 28±6 nA
- Higher agonist sensitivity of 1:10 (HS) than 1:1 or 10:1 receptors (human α2(T22I)β2-nAChR [2]): 4–9 fold
- Lower Imax of 10:1 than 1:1 receptors (human α2(T22I)β2-nAChR [2]): ~ 25 fold
- Lower agonist sensitivity of 10:1 than 1:1 receptors (human α2(T22I)β2-nAChR [2]): ~ 2 fold
- Hill coefficient nH ± SE (human α2(T22I)β2-nAChR [2]; α2(T22I)β2(1:1)): 0.9 ± 0.08
- Peak response Imax (Mean±SE) (human α2(T22I)β2-nAChR [2]; α2(T22I)β2(1:1)): 1326 ± 214 nA
- Peak response Imax (Mean±SE) (human α2(T22I)β2-nAChR [2]; α2(T22I)β2(1:10)): 952 ± 128 nA
- Hill coefficient nH ± SE (human α2(T22I)β2-nAChR [2]; α2(T22I)β2(10:1)): 0.9 ± 0.3
- Peak response Imax (Mean±SE) (human α2(T22I)β2-nAChR [2]; α2(T22I)β2(10:1)): 54 ± 9 nA

SMILES: CNC1(C)C2CCC(C2)C1(C)C (centres unmarked) [Mecamylamine, mecamylamine]
- Effect on ACh or nicotine induced Imax responses (human α2(T22I)β2-nAChR [3]): completely abolished
- Effect on ACh or nicotine induced Imax responses (human α2β2-nAChR [4]): completely abolished
- inhibition at 1000 µM (human α2(T22I)β4-nAChR [5]): 99%

SMILES: CN1CCC[C@H]1c1cccnc1 [Nicotine, L-nicotine]
- EC50 (human α2β4-nAChR; α2β4(1:1) cRNA ratio): 4.7 µM
- EC50 (human α2β4-nAChR; α2β4(1:10) cRNA ratio, putative HS): 3.8 µM
- EC50 (human α2β4-nAChR; α2β4(10:1) cRNA ratio, putative LS): 11 µM
- Hill coefficient nH ± SE (human α2β4-nAChR; α2β4(1:1)): 1.1 ± 0.1
- Imax Conc. (concentration where Imax is achieved) (human α2β4-nAChR; α2β4(1:1)): 100 µM
- Peak response Imax (Mean±SE) (human α2β4-nAChR; α2β4(1:1)): 2088 ± 96 nA
- Peak response Imax (Mean±SE) (human α2β4-nAChR; α2β4(1:1), listed as nicotine): 2088 nA
- Hill coefficient nH ± SE (human α2β4-nAChR; α2β4(1:10)): 1.3 ± 0.08
- Imax Conc. (concentration where Imax is achieved) (human α2β4-nAChR; α2β4(1:10)): 100 µM
- Peak response Imax (Mean±SE) (human α2β4-nAChR; α2β4(1:10)): 1814 ± 155 nA
- Hill coefficient nH ± SE (human α2β4-nAChR; α2β4(10:1)): 1.6 ± 0.09
- Imax Conc. (concentration where Imax is achieved) (human α2β4-nAChR; α2β4(10:1)): 100 µM
- Peak response Imax (Mean±SE) (human α2β4-nAChR; α2β4(10:1)): 1139 ± 93 nA
- EC50 (human α2β2-nAChR [1]; α2β2(1:1) cRNA ratio): 1.8 µM
- EC50 (human α2β2-nAChR [1]; α2β2(1:10) cRNA ratio, putative HS): 0.83 µM
- EC50 (human α2β2-nAChR [1]; α2β2(10:1) cRNA ratio, putative LS): 6.3 µM
- Peak current (human α2β2-nAChR [1]): 291±55 nA
- Higher agonist sensitivity of 1:10 (HS) than 1:1 receptors (human α2β2-nAChR [1]): 2–3 fold
- Lower Imax of 1:10 (HS) than 1:1 or 10:1 receptors (human α2β2-nAChR [1]): 72–82%
- Higher agonist sensitivity of 1:10 (HS) than 10:1 (LS) receptors (human α2β2-nAChR [1]): 8–18 fold
- Lower Imax of 10:1 than 1:1 receptors (human α2β2-nAChR [1]): ~ 36%
- Lower agonist sensitivity of 10:1 than 1:1 receptors (human α2β2-nAChR [1]): ~ 3.5 fold
- Hill coefficient nH ± SE (human α2β2-nAChR [1]; α2β2(1:1)): 0.8 ± 0.08
- Imax Conc. (concentration where Imax is achieved) (human α2β2-nAChR [1]; α2β2(1:1)): 100 µM
- Peak response Imax (Mean±SE) (human α2β2-nAChR [1]; α2β2(1:1)): 373 ± 33 nA
- Hill coefficient nH ± SE (human α2β2-nAChR [1]; α2β2(1:10)): 1.1 ± 0.13
- Imax Conc. (concentration where Imax is achieved) (human α2β2-nAChR [1]; α2β2(1:10)): 31.6 µM
- Peak response Imax (Mean±SE) (human α2β2-nAChR [1]; α2β2(1:10)): 68 ± 7.8 nA
- Hill coefficient nH ± SE (human α2β2-nAChR [1]; α2β2(10:1)): 1.2 ± 0.06
- Imax Conc. (concentration where Imax is achieved) (human α2β2-nAChR [1]; α2β2(10:1)): 100 µM
- Peak response Imax (Mean±SE) (human α2β2-nAChR [1]; α2β2(10:1)): 239 ± 21 nA
- Peak current (hα2hβ2wt-nAChR): 24±5 nA
- EC50 (human α2(T22I)β2-nAChR [2]; Potency EC50 (95% CI), α2(T22I)β2(1:1) cRNA ratio, −70 mV): 6.7 µM
- Higher agonist sensitivity of 1:10 (HS) than 1:1 or 10:1 receptors (human α2(T22I)β2-nAChR [2]): 3–5 fold
- Lower Imax of 10:1 than 1:1 receptors (human α2(T22I)β2-nAChR [2]): ~ 23 fold
- Lower agonist sensitivity of 10:1 than 1:1 receptors (human α2(T22I)β2-nAChR [2]): ~ 2 fold
- Hill coefficient nH ± SE (human α2(T22I)β2-nAChR [2]; α2(T22I)β2(1:1)): 1.2 ± 0.08
- Imax Conc. (concentration where Imax is achieved) (human α2(T22I)β2-nAChR [2]; α2(T22I)β2(1:1)): 100 µM
- Peak response Imax (Mean±SE) (human α2(T22I)β2-nAChR [2]; α2(T22I)β2(1:1)): 1463 ± 136 nA
- Hill coefficient nH ± SE (human α2(T22I)β2-nAChR [2]; α2(T22I)β2(1:10)): 1 ± 0.07
- Imax Conc. (concentration where Imax is achieved) (human α2(T22I)β2-nAChR [2]; α2(T22I)β2(1:10)): 31.6 µM
- Peak response Imax (Mean±SE) (human α2(T22I)β2-nAChR [2]; α2(T22I)β2(1:10)): 1004 ± 91 nA
- Hill coefficient nH ± SE (human α2(T22I)β2-nAChR [2]; α2(T22I)β2(10:1)): 1.1 ± 0.2
- Imax Conc. (concentration where Imax is achieved) (human α2(T22I)β2-nAChR [2]; α2(T22I)β2(10:1)): 100 µM
- Peak response Imax (Mean±SE) (human α2(T22I)β2-nAChR [2]; α2(T22I)β2(10:1)): 62 ± 12 nA
- EC50 (human α2(T22I)β4-nAChR [6]; α2(T22I)β4(1:1) cRNA ratio): 12 µM
- EC50 (human α2(T22I)β4-nAChR [6]; α2(T22I)β4(1:10) cRNA ratio, putative HS): 2.6 µM
- EC50 (human α2(T22I)β4-nAChR [6]; α2(T22I)β4(10:1) cRNA ratio, putative LS): 14 µM
- Hill coefficient nH ± SE (human α2(T22I)β4-nAChR [6]; α2(T22I)β4(1:1)): 1.8 ± 0.07
- Imax Conc. (concentration where Imax is achieved) (human α2(T22I)β4-nAChR [6]; α2(T22I)β4(1:1)): 100 µM
- Peak response Imax (Mean±SE) (human α2(T22I)β4-nAChR [6]; α2(T22I)β4(1:1)): 1527 ± 245 nA
- Peak response Imax (Mean±SE) (human α2(T22I)β4-nAChR [6]; α2(T22I)β4(1:1), listed as nicotine): 1527 nA
- Hill coefficient nH ± SE (human α2(T22I)β4-nAChR [6]; α2(T22I)β4(1:10)): 1.2 ± 0.04
- Imax Conc. (concentration where Imax is achieved) (human α2(T22I)β4-nAChR [6]; α2(T22I)β4(1:10)): 100 µM
- Peak response Imax (Mean±SE) (human α2(T22I)β4-nAChR [6]; α2(T22I)β4(1:10)): 3996 ± 168 nA
- Hill coefficient nH ± SE (human α2(T22I)β4-nAChR [6]; α2(T22I)β4(10:1)): 2 ± 0.2
- Imax Conc. (concentration where Imax is achieved) (human α2(T22I)β4-nAChR [6]; α2(T22I)β4(10:1)): 100 µM
- Peak response Imax (Mean±SE) (human α2(T22I)β4-nAChR [6]; α2(T22I)β4(10:1)): 402 ± 70 nA
- Peak current lower than wild-type α2β4 (human α2(T22I)β4-nAChR [6]; α2(T22I)β4 vs α2β4, 1:1 cRNA (mixture of isoforms)): ~ 30%
